# From patent US20090069302A1 (SMITHKLINE BEECHAM CORPORATION, priority 2006, published 2009)
# Legend:
# AXOR109 = target: T1, AXOR109 (Homo sapiens, UniProt Q8TDU6); assay: Human AXOR109/Melanophore Assay; format: cell-based; settings: melanophore assay; for Emax: 1 h, normalized to alpha-MSH system max; for EC50: AXOR109 transfected melanophores
# T1 construct: expressed in transfected cells; host or cells: melanophore cells, transfected by electroporation
# T1 sequence (Q8TDU6 1-330): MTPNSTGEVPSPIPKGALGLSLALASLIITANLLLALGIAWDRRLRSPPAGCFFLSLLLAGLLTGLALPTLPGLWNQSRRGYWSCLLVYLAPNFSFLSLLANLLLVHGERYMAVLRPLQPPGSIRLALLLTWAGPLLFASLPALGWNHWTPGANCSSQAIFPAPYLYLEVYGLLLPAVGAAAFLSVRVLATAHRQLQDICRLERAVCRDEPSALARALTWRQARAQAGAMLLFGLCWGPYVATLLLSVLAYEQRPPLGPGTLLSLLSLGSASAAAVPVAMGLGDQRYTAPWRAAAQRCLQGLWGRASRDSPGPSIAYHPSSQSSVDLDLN
# Procedure, shortened: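 Readout is melanosome dispersion in melanophores electroporated with human AXOR109, in buffer containing 10 nM melatonin and 1% DMSO. Transmittance was read before and after 1 h compound exposure across 11-point 3-fold dilutions. Response was normalized to 200 nM alpha-MSH as system max, and pEC50 was obtained from a Hill fit.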
# GK rats = assay: Effect on glucose, insulin and GLP-1 secretion in GK rats after oral glucose; format: in vivo, rat; set-up: Glucose changes / Insulin changes / GLP-1 changes: unit not given here; settings: for GLP-1 changes: active GLP-1, DPPIV inhibitor pretreated; for GLP-1 changes / Insulin changes / Glucose changes: 5 mg/kg intracolonic at −30 min, glucose 1 g/kg oral at 0 min; for Insulin changes: plasma; for Insulin changes / Glucose changes: DPPIV inhibitor pretreated; for Glucose changes: whole blood
# Protocol: Eight week old conscious GK rats (four per group) were pretreated with a DPPIV inhibitor immediately after control blood sampling at −40 min (black arrow), and dosed with vehicle (0.5% HPMC/0.1% Tween80) or 5 mg/kg Example 14 through intracolonic injection at −30 time point (blue arrow). Glucose (1 g/kg) was given orally at 0 min. Blood samples were collected at −40, 0, 5, 15, 30, 60, 90 and 120 minutes after dosing. Whole blood glucose, plasma insulin, and active GLP-1 were measured (ELISA kits, LINCO). […] The results are listed in Tables 3a, 3b, and 3c, and graphically represented in FIGS. 2a, 2b, and 2c, respectively.
compound,measurement,setting,value
"COc1ccc(S(=O)(=O)N(C)CCN(C)S(=O)(=O)c2ccc(OC)c(OC)c2)cc1OC [Example 14, N,N′-1,2-ethanediylbis[N-methyl-3,4-bis(methyloxy)benzenesulfonamide]]",Emax,AXOR109,51 to 75%
same,EC50,AXOR109,< 126 nM
same,active GLP-1 and insulin level compared to controls,"GK rats; 5 mg/kg intracolonic, in words",higher level of active GLP-1 and insulin
same,glucose disposal compared to controls,"GK rats; 5 mg/kg intracolonic, in words",improved glucose disposals
same,GLP-1 changes,GK rats; 0 min,15.08
same,GLP-1 changes,GK rats; 15 min,23.63
same,GLP-1 changes,GK rats; 30 min,19.58
same,GLP-1 changes,GK rats; 60 min,23.63
same,GLP-1 changes,GK rats; 90 min,23.63
same,GLP-1 changes,GK rats; 120 min,21.15
same,GLP-1 changes,GK rats; −40 min (before dosing),12.65
same,Insulin changes,GK rats; 0 min,68.06
same,Insulin changes,GK rats; 15 min,366.79
same,Insulin changes,GK rats; 30 min,289.23
same,Insulin changes,GK rats; 60 min,152.33
same,Insulin changes,GK rats; 90 min,146.47
same,Insulin changes,GK rats; 120 min,158.31
same,Insulin changes,GK rats; −40 min (before dosing),85.82
same,Glucose changes,GK rats; 0 min,74.25
same,Glucose changes,GK rats; 15 min,173.75
same,Glucose changes,GK rats; 30 min,174.75
same,Glucose changes,GK rats; 60 min,122.50
same,Glucose changes,GK rats; 90 min,110.00
same,Glucose changes,GK rats; 120 min,114.50
same,Glucose changes,GK rats; −40 min (before dosing),106.75
"COc1ccc(S(=O)(=O)N2CC(C)N(S(=O)(=O)c3ccc(OC)c(OC)c3)CC2C)cc1OC (stereo not shown) [Example 18, 1,4-bis{[3,4-bis(methyloxy)phenyl]sulfonyl}-2,5-dimethylpiperazine]",Emax,AXOR109,51 to 75%
same,EC50,AXOR109,< 126 nM
"COc1cccc(S(=O)(=O)N(C)CCN(C)S(=O)(=O)c2ccc(OC)c(OC)c2)c1 [Example 10, N-methyl-N-[2-(methyl{[3-(methyloxy)phenyl]sulfonyl}amino)ethyl]-3,4-bis(methyloxy)benzenesulfonamide]",Emax,AXOR109,76 to 100%
same,EC50,AXOR109,126 to 1000 nM
"COc1ccc(S(=O)(=O)N2CCN(S(=O)(=O)c3ccc(-c4cnco4)cc3)CC2)cc1OC [Example 2, 1-{[3,4-bis(methyloxy)phenyl]sulfonyl}-4-{[4-(1,3-oxazol-5-yl)phenyl]sulfonyl}piperazine]",Emax,AXOR109,51 to 75%
same,EC50,AXOR109,126 to 1000 nM
"CCN(C[C@H]1CCCN1S(=O)(=O)c1ccc(OC)c(OC)c1)S(=O)(=O)c1ccc(OC)c(OC)c1 [Example 98, N-[((2R)-1-{[3,4-bis(methyloxy)phenyl]sulfonyl}-2-pyrrolidinyl)methyl]-N-ethyl-3,4-bis(methyloxy)benzenesulfonamide]",Emax,AXOR109,76 to 100%
same,EC50,AXOR109,< 126 nM
"CCN(C[C@H](C)N(CC)S(=O)(=O)c1ccc(OC)c(OC)c1)S(=O)(=O)c1ccc(OC)c(OC)c1 [Example 74, N,N′-(2S)-1,2-propanediylbis[N-ethyl-3,4-bis(methyloxy)benzenesulfonamide]]",Emax,AXOR109,76 to 100%
same,EC50,AXOR109,126 to 1000 nM
"CCN([C@H]1CCN(S(=O)(=O)c2ccc(OC)c(OC)c2)C1)S(=O)(=O)c1ccc(OC)c(OC)c1 [Example 62, N-((3S)-1-{[3,4-bis(methyloxy)phenyl]sulfonyl}-3-pyrrolidinyl)-N-ethyl-3,4-bis(methyloxy)benzenesulfonamide]",Emax,AXOR109,76 to 100%
same,EC50,AXOR109,1260 to 10000 nM
"CCCN(C[C@@H]1CCCN1S(=O)(=O)c1ccc(OC)c(OC)c1)S(=O)(=O)c1ccc(OC)c(OC)c1 [Example 96, N-[((2S)-1-{[3,4-bis(methyloxy)phenyl]sulfonyl}-2-pyrrolidinyl)methyl]-3,4-bis(methyloxy)-N-propylbenzenesulfonamide]",Emax,AXOR109,76 to 100%
same,EC50,AXOR109,126 to 1000 nM
COc1ccc(S(=O)(=O)N2CC[C@@H](N(C)S(=O)(=O)c3ccc(OC)c(OC)c3)C2)cc1OC [Example 85],Emax,AXOR109,51 to 75%
same,EC50,AXOR109,126 to 1000 nM
"COc1ccc(S(=O)(=O)NC2CCCCN(S(=O)(=O)c3ccc(OC)c(OC)c3)C2)cc1OC (stereo not shown) [Example 25, N-(1-{[3,4-bis(methyloxy)phenyl]sulfonyl}hexahydro-1H-azepin-3-yl)-3,4-bis(methyloxy)benzenesulfonamide]",Emax,AXOR109,0 to 50%
same,EC50,AXOR109,1260 to 10000 nM
